Measurements as given in patent publication US7943775B2, “Small molecules for imaging protein-protein interactions” (The United States of America as represented by the …, priority 2006, dated 2011).

Key:
Biotin-labeled amyloid-β [1] = target: T1, Biotin-labeled amyloid-β (Homo sapiens, UniProt P05067); assay: Dose response assay, plate-coated test compounds at 6 concentrations vs biotin-labeled amyloid β; assay type: binding; conditions: biotin-labeled amyloid at 1 μM; compounds coated at 6 concentrations
Protocol: Step 1. Coating the plate. The four compounds 3a, 3b, 3c, and 3d were diluted to 6 different concentrations in the same coating buffer used in the ELISA. The resulting solutions were applied to individual wells of a 96-well polystyrene microtiter plate at 100 μL/well. The plate was then sealed and allowed to incubate at 4° C. for at least 8 hours.
Step 2. Washing the plate. The sample solutions were then removed and the plate was washed twice with 300 μL/well of the same washing solution used in the ELISA.
Step 3. Blocking. The blocking buffer used in the ELISA was added at a volume of 150 μL/well, and the plate was incubated at room temperature for 2 hours.
Step 4. Sampling. The blocking buffer was removed and biotin-labeled amyloid P was added to each well at a concentration of 1 μM in the same binding buffer used in the ELISA. The solution in each well was then mixed by being drawn into and ejected from a pipette 15 times. The plate was then gently agitated for further mixing. After mixing, the plate was covered and incubated at room temperature overnight.
Step 5. Washing. The solution in each well was discarded and the plate was washed three times with 170 μL/well of the washing solution described above.
Step 6. Binding with avidin-HRP and substrate. NeutrAvidinHRP solution was added to each well at 0.01 μg/well. The wells were then covered and incubated at room temperature for 30 minutes. The solution in each well was discarded and the plate was washed 3 times with the above-referenced washing solution at 170 μL/well of washing solution. The chemiluminescent substrate solution of the ELISA was then added at 100 μL/well, and luminescence was read using the Wallac Victor 1420 Multilabel Counter.
Step 7. Reading and calculations. Values for average luminescence vs. concentration were developed in the same manner as in the ELISA. From these values were determined EC50 values for each of the four test compounds as β-amyloid-binding portion candidates.

Biotin-labeled amyloid-β [2] = target: T1, Biotin-labeled amyloid-β; assay: ELISA assay, binding of biotin-labeled amyloid-β to plate-coated test compounds; conditions: compound coated at 1 μM
Protocol: Step 1. Sample Solution Preparations. For each test compound, four samples and two standard solutions using Thioflavin-T as the standard were prepared in a coating buffer, each to a final concentration of 1 μM. The coating buffer was 50 mM Tris (Trizma Base from Sigma Aldrich, Inc., St. […] Step 2. Coating the Plate. The sample solutions were applied to individual wells of a 96-well polystyrene microtiter plate at 100 μL/well. The plates were sealed and allowed to incubate at 4° C. for at least 8 hours. Step 3. Washing the Plate. The sample solutions were removed and the plate was washed two times with 300 μL/well of washing solution, which consisted of a 1 to 25 dilution in water of DELFIA® Wash Concentrate (PerkinElmer Life Sciences, Inc., Boston, Mass., USA). Step 4. Blocking. Blocking was achieved by adding 150 μL/well of a blocking buffer which consisted of a 1 to 20 dilution in water of Milk Diluent/Blocking Solution Concentrate (from KPL, Inc., Gaithersburg, Md., USA). The plate was then incubated at room temperature for 2 hours. Step 5. Sampling. Biotin-labeled amyloid-β was dissolved in a binding buffer to form a 1 μM solution of the amyloid-β. The binding buffer was a mixture of a coating buffer with the blocking buffer of Step 4 in a 90:10 ratio by volume. […] The dilutions were performed in quadruplicate, thus resulting in four sets of wells for each test compound. Step 6. Mixing. The solution in each well was mixed by being drawn into and ejected from a pipette 15 times. The plate was then gently agitated for further mixing. The plate was then covered and incubated at room temperature overnight. Step 7. Washing. The solution in each well was discarded and the plate was washed three times with 170 μL/well of the washing solution described above. Step 8. Binding with avidin-HRP. NeutrAvidinHRP solution was added to each well at 0.01 μg/well. The wells were then covered and incubated at room temperature for 30 minutes. Step 9. Substrate addition. The solution in each well was discarded and the plate was washed 3 times with the above-referenced washing solution at 170 μL/well of washing solution. A chemiluminescent substrate solution which was a mixture of equal volumes of LumiGLO Substrate A and LumiGLO Substrate B from KPL, Inc., was then added at 100 μL/well. Step 10. Fluorescence measurement and calculations. Luminescence was read on a Wallac Victor 1420 Multilabel Reader (PerkinElmer Life Sciences, Inc., Boston, Mass., USA). […] Average luminescence concentrations in counts per second (CPS) for each of the four β-amyloid-binding portion candidates at each dilution of the biotin-labeled β-amyloid are shown in Table I below.

FKBP12 = target: T2, FKBP12 (Homo sapiens, UniProt P62942); assay: ELISA screening of candidates for the chaperone binding portion (FKBP12); conditions: for Average Luminescence Concentration (CPS): compound coated at 1 μM; for binding affinity to chaperone FKBP12, in words: comparison of the four isomers
T2 construct: His (6xHis); made in house; host or cells: E. coli BL21-AI
Protocol: The following four compounds, synthesized as described in, or in a manner analogous to the description in, Example 3, were tested for their suitability as candidates for the chaperone binding portion of the construct of this invention. The chaperone to which binding was evaluated was FKBP12 and, screening was performed by ELISA.
Step 1. Sample Solutions. Four samples of each of the test compounds were prepared by dissolving the compounds in the coating buffer described in Example 2 to a final concentration of 1 μM.
Step 2. Coating the Plate. The wells of a 96-well microtiter plate were coated with the sample solutions at 100 μL/well. The plates were then sealed and allowed to incubate at 4° C. for at least 8 hours.
Step 3. Washing the Plate. The coating solution was removed from the wells and the plate was washed two times with the washing solution of Example 2 at 300 μL/well.
Step 4. Blocking. The blocking buffer used in Example 2 was added at a volume of 150 μL/well, and the plate was incubated at room temperature for 2 hours.
Step 5. Sampling. Biotin-labeled FKBP12 was dissolved in a binding buffer to form a 1 μM solution. The binding buffer was a mixture of a coating buffer with the blocking buffer of Step 4 in a 90:10 ratio by volume. The coating buffer consisted of 50 mM Tris (Trizma Base from Sigma-Aldrich), 150 mM NaCl, 1 mM CaCl2, 1mM MgCl2, 1 mM MnCl2, pH=7.4 in redistilled water. Once blocking had been completed in Step 4, the blocking buffer was removed from each well, and the biotin-labeled […] solution was placed in one of the wells for each of the four test compounds, together with additional blocking buffer for a total volume of 125 μL in the well. Dilutions were then prepared to achieve final concentrations per well of […]. The dilutions were performed in quadruplicate, thus resulting in four sets of wells for each test compound. The procedures used for cloning, expression, and purification of FKBP12 are provided at the end of this example.
Step 6. Mixing. The solution in each well was mixed by being drawn into and ejected from a pipette 15 times. The plate was then gently agitated to achieve thorough mixing. After mixing, the plate was covered and incubated at room temperature overnight.
Step 7. Washing. The solution in each well was discarded and the plate was washed three times with 170 μL/well of the washing solution of Example 2.
Step 8. Binding with avidin-HRP. NeutrAvidinHRP solution was added to each well at 0.01 μg (100 μL)/well. The wells were then covered and incubated at room temperature for 30 minutes.
Step 9. Substrate addition. The solution in each well was discarded and the plate was washed 3 times with the above-referenced washing solution at 170 μL/well of washing solution. A chemiluminescent substrate solution was then added at 100 μL/well.
Step 10. Fluorescence measurement and calculations.

[3] = β-Amyloid Dilution 10 (μL/well)
[4] = β-Amyloid Dilution 20 (μL/well)
[5] = β-Amyloid Dilution 30 (μL/well)
[6] = β-Amyloid Dilution 40 (μL/well)
[7] = Concentration 1 (μM/well) biotin-labeled FKBP12
[8] = Concentration 5 (μM/well) biotin-labeled FKBP12
[9] = Concentration 10 (μM/well) biotin-labeled FKBP12
[10] = Concentration 20 (μM/well) biotin-labeled FKBP12
[11] = Concentration 30 (μM/well) biotin-labeled FKBP12
[12] = Concentration 40 (μM/well) biotin-labeled FKBP12

T2 sequence (P62942 whole entry): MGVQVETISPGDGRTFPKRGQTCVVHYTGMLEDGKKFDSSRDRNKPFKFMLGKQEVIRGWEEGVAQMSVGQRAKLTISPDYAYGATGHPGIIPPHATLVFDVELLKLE
T1 sequence (P05067 672-711 limits assumed): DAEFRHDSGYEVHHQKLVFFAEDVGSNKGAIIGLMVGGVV

SMILES	EC50 (Biotin-labeled amyloid-β [1])	Average Luminescence Concentration (CPS) (Biotin-labeled amyloid-β [2]; β-Amyloid Dilution 1 (μL/well))	Average Luminescence Concentration (CPS) (Biotin-labeled amyloid-β [2]; β-Amyloid Dilution 5 (μL/well))	Average Luminescence Concentration (CPS) (Biotin-labeled amyloid-β [2]; [3])	Average Luminescence Concentration (CPS) (Biotin-labeled amyloid-β [2]; [4])	Average Luminescence Concentration (CPS) (Biotin-labeled amyloid-β [2]; [5])	Average Luminescence Concentration (CPS) (Biotin-labeled amyloid-β [2]; [6])	Average Luminescence Concentration (CPS) (FKBP12; [7])	Average Luminescence Concentration (CPS) (FKBP12; [8])	Average Luminescence Concentration (CPS) (FKBP12; [9])	Average Luminescence Concentration (CPS) (FKBP12; [10])	Average Luminescence Concentration (CPS) (FKBP12; [11])	Average Luminescence Concentration (CPS) (FKBP12; [12])	binding affinity to chaperone FKBP12, in words (FKBP12)
NCCNC(=O)c1ccccc1Nc1cccc(C(F)(F)F)c1 [3a, N-(2-amino-ethyl)-2-(3-trifluoromethyl-phenylamino)-benzamide]	50.4 µM	323 CPS	816 CPS	1453 CPS	2072 CPS	3072 CPS	2986 CPS	–	–	–	–	–	–	–
NCCCNC(=O)c1ccccc1Nc1cccc(C(F)(F)F)c1 [3b]	31.9 µM	878 CPS	1325 CPS	1694 CPS	2184 CPS	4629 CPS	4788 CPS	–	–	–	–	–	–	–
NCCCCNC(=O)c1ccccc1Nc1cccc(C(F)(F)F)c1 [3c]	36.2 µM	32 CPS	74 CPS	3128 CPS	161 CPS	2968 CPS	3025 CPS	–	–	–	–	–	–	–
CCC(C)(C)C(=O)C(=O)N1CCCC[C@H]1C(=O)O[C@@H](CCc1ccc(OC)c(OC)c1)c1ccc(OCC(=O)O)cc1 [9-RR]	–	–	–	–	–	–	–	660 CPS	1158 CPS	769 CPS	371 CPS	1297 CPS	1138 CPS	low or moderate binding affinity
CCC(C)(C)C(=O)C(=O)N1CCCC[C@H]1C(=O)O[C@H](CCc1ccc(OC)c(OC)c1)c1ccc(OCC(=O)O)cc1 [9-RS, (1R)-1-[4-(carboxymethoxy)phenyl]-3-(3,4-dimethoxy-phenyl)-1-propanyl (2S)-1-(3,3-dimethyl-1,2-dioxopentyl)-2-piperidinecarboxylate]	–	–	–	–	–	–	–	1399 CPS	1688 CPS	1685 CPS	2006 CPS	4244 CPS	5509 CPS	–
CCC(C)(C)C(=O)C(=O)N1CCCC[C@H]1C(=O)O[C@@H](CCc1ccc(OC)c(OC)c1)c1ccc(OCC(=O)O)cc1 [9-SR]	–	–	–	–	–	–	–	762 CPS	1050 CPS	1218 CPS	1410 CPS	1478 CPS	1392 CPS	–
CCC(C)(C)C(=O)C(=O)N1CCCC[C@H]1C(=O)O[C@@H](CCc1ccc(OC)c(OC)c1)c1ccc(OCC(=O)O)cc1 [9-SS]	–	–	–	–	–	–	–	297 CPS	876 CPS	931 CPS	579 CPS	1366 CPS	1231 CPS	low or moderate binding affinity
Cc1ccc2c(c1)sc(-c1ccc(N(C)C)cc1)[n+]2C.[Cl-] [Thioflavin-T, reference compound]	–	940 CPS	570 CPS	731 CPS	86 CPS	2311 CPS	5140 CPS	–	–	–	–	–	–	–
